Test results as given in ChEMBL document CHEMBL1201862, “PubChem BioAssay data set” (2004).
Calls of active or inactive are those of the source.

How the values were obtained:
Mucolipin-3 = Mucolipin-3 (Homo sapiens, UniProt Q8TDD5); experiment: Dose response cell-based high-throughput screening assay for agonists of the transient receptor potential channel ML3 (TRPML3). [Related pubchem assays: 1526, 1424, 1448 ]; format: functional
Ion channel NompC = Ion channel NompC (Danio rerio, UniProt Q7T1G6); experiment: Fluorescence counterscreen assay for TRPML3 agonists: dose response cell-based high-throughput screening assay to identify agonists of the transient receptor potential channel N1 (TRPN1). [Related pubchem assays: 1526, 1424, 1448 ]; format: functional
Sequence of Ion channel NompC (Q7T1G6 whole entry): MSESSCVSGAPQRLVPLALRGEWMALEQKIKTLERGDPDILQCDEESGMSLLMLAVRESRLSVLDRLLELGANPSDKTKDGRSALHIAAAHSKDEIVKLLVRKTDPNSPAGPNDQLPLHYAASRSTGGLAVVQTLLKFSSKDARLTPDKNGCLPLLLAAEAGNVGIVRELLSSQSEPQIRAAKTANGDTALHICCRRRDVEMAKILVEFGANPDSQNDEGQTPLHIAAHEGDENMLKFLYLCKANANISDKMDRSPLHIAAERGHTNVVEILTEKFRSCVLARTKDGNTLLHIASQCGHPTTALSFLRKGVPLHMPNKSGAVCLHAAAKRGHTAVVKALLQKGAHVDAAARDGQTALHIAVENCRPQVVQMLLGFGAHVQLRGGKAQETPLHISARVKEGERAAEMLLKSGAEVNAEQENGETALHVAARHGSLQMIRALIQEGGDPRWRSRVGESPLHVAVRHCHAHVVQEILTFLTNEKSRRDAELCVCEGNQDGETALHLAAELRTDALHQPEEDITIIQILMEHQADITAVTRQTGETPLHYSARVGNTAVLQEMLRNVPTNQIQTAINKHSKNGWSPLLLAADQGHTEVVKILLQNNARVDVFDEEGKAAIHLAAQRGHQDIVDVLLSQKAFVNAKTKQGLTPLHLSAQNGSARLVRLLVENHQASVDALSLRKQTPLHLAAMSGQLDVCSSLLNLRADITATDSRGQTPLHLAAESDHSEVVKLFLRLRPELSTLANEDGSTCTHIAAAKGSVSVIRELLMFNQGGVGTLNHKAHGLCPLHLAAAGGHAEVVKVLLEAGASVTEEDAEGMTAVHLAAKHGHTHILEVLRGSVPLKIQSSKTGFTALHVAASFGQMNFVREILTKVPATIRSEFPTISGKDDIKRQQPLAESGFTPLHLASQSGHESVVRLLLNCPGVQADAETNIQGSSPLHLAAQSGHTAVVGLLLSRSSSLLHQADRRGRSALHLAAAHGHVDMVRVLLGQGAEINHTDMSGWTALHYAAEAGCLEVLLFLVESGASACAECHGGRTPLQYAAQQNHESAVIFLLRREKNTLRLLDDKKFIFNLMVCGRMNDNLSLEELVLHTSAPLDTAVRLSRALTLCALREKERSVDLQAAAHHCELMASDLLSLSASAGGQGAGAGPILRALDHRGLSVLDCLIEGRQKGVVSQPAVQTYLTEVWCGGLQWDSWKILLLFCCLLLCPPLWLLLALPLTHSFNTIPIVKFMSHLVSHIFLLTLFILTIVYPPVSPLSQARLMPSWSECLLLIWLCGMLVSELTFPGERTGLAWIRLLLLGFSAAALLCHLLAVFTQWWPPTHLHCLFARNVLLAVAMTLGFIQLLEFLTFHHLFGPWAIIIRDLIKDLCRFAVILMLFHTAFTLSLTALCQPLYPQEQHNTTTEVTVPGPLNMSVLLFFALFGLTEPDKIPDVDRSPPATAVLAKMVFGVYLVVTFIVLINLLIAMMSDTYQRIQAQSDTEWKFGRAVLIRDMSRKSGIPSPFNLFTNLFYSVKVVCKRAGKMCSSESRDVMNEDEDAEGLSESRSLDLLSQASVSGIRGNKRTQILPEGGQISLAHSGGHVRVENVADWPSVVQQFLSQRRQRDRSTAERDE

[1] = A cytotoxicity screen of small molecule inhibitors of the PhoP region in Salmonella typhi identified in the primary screen. [Related pubchem assays: 1850, 1864, 1985 ]; format: functional
Bcl-2-like protein 10 = Bcl-2-like protein 10 (Homo sapiens, UniProt Q9HD36); experiment: Bcl-B/TR3 peptide binding disruption – biochemical, fluorescence polarization, FITC-TR3 peptide, selectivity assay for Bfl-1 inhibitor project, primary screen (AID 748);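 also: fluorescence polarization from a fluorescein-labelled TR3 peptide binding purified Bcl-B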
Sequence of Bcl-2-like protein 10 (Q9HD36 whole entry): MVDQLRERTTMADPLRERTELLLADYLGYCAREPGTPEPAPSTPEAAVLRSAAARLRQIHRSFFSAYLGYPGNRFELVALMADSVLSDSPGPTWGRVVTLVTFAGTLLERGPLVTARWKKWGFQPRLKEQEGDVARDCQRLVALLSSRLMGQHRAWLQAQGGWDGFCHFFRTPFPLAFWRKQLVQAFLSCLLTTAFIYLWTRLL

Estrogen receptor beta = Estrogen receptor beta (Homo sapiens, UniProt Q92731);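 also: recombinant ER-beta bound to coactivator SRC1 peptide in presence of estradiol agonist; inhibitors block coactivator peptide binding and lower the FRET signal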
Sequence of Estrogen receptor beta (Q92731 whole entry): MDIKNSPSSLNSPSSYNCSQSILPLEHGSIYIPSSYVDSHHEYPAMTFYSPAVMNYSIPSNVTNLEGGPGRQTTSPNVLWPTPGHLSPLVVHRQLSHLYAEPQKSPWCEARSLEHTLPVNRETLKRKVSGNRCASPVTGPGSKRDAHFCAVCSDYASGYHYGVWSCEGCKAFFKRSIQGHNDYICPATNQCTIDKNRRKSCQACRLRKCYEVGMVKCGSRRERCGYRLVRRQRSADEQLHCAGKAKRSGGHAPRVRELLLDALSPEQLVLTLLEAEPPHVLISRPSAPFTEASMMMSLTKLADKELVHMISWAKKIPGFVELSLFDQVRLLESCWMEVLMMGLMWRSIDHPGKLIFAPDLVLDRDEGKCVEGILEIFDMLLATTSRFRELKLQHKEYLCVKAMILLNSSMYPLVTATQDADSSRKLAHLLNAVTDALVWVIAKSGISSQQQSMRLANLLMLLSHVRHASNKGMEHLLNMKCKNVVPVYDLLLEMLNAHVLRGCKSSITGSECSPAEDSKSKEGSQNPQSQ

[2] = Luminescence Cell-Based Dose Response to Identify Activators of 5'UTR Stem-Loop Driven Prion Protein mRNA Translation in H4-C Neuroglioblastoma Cells. [Related pubchem assays: 1829 (Project Summary), 1814 (Primary HTS)]; format: functional
[3] = Luminescence Cell-Based Dose Response to Identify Activators of Luciferase Translation or Activity in H4-C Neuroglioblastoma Cells. [Related pubchem assays: 1829 (Project Summary), 1814 (Primary HTS)]; format: functional
[4] = Luminescence Cell-Based Dose Confirmation to Identify Activators of 5'UTR Stem-Loop Driven Alpha-Synuclein mRNA Translation in H4 Neuroglioblastoma Cells. [Related pubchem assays: 1829 (Project Summary), 1814 (Primary HTS)]; format: functional
[5] = Luminescence Cell-Based Dose Response HTS to Identify Activators of Luciferase Translation or Activity in H4 […] Cells. [Related pubchem assays: 1829 (Project Summary), 1814 (Primary HTS)]; format: functional
Estrogen receptor = Estrogen receptor (Homo sapiens, UniProt P03372);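 also: potency for inhibiting coactivator peptide recruitment to the receptor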
Sequence of Estrogen receptor (P03372 whole entry): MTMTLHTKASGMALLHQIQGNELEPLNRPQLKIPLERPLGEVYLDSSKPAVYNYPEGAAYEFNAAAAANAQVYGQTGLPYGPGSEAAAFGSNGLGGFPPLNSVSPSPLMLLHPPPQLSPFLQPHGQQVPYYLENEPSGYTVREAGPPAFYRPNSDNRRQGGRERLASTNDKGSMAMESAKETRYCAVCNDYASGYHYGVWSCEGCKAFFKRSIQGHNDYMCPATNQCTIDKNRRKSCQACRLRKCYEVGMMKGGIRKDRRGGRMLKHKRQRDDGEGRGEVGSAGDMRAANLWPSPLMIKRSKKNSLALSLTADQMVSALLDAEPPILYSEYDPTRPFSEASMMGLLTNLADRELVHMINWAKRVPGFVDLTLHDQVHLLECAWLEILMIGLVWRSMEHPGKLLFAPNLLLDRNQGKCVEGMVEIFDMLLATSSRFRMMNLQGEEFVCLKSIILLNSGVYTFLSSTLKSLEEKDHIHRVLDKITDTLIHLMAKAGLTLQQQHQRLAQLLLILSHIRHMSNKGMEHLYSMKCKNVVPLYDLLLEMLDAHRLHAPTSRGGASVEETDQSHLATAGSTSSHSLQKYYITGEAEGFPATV

Aminopeptidase N = target: T1, Aminopeptidase N (Plasmodium falciparum FcB1/Columbia, UniProt O96935); experiment: malaria alanyl aminopeptidase activity blockers – biochemical, fluorogenic H-Leu-NHMec substrate, 1536-well (AID 1445); set-up: species or system Plasmodium falciparum 3D7, 3D7
T1 sequence (O96935 whole entry): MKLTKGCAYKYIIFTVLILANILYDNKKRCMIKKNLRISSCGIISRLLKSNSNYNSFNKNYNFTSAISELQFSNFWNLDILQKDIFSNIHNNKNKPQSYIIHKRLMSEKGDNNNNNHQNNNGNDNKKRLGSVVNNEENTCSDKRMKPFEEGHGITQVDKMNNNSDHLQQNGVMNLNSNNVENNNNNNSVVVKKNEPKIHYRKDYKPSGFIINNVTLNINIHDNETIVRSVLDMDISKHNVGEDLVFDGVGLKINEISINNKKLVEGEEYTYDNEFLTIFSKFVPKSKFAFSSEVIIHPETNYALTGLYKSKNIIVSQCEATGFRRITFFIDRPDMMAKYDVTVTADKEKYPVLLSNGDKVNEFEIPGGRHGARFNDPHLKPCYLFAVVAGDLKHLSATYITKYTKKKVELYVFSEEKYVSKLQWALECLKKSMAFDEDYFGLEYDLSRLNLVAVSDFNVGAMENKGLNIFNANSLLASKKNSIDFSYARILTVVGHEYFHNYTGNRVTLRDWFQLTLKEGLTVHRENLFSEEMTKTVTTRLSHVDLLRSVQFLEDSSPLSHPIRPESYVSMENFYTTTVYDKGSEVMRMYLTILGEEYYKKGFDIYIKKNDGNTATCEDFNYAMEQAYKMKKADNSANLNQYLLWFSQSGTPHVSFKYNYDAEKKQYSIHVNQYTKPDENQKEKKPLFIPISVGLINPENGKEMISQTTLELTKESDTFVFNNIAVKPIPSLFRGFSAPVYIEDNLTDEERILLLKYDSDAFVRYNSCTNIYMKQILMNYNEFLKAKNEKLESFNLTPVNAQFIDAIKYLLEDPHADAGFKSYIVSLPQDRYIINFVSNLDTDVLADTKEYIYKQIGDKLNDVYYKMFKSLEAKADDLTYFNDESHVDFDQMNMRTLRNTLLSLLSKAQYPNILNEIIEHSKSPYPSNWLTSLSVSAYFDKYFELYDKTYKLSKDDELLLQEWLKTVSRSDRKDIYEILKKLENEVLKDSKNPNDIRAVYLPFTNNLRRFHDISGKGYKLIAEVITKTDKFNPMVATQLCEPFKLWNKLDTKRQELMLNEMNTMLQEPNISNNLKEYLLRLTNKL

[6] = target: DNA repair and recombination protein RAD54-like (Homo sapiens, UniProt Q92698); experiment: RAD54 Holliday junction migration blockers – biochemical, fluorescence, cherry-picked samples, dose series, confirmation (AID 651657); format: functional
Sequence of DNA repair and recombination protein RAD54-like (Q92698 whole entry): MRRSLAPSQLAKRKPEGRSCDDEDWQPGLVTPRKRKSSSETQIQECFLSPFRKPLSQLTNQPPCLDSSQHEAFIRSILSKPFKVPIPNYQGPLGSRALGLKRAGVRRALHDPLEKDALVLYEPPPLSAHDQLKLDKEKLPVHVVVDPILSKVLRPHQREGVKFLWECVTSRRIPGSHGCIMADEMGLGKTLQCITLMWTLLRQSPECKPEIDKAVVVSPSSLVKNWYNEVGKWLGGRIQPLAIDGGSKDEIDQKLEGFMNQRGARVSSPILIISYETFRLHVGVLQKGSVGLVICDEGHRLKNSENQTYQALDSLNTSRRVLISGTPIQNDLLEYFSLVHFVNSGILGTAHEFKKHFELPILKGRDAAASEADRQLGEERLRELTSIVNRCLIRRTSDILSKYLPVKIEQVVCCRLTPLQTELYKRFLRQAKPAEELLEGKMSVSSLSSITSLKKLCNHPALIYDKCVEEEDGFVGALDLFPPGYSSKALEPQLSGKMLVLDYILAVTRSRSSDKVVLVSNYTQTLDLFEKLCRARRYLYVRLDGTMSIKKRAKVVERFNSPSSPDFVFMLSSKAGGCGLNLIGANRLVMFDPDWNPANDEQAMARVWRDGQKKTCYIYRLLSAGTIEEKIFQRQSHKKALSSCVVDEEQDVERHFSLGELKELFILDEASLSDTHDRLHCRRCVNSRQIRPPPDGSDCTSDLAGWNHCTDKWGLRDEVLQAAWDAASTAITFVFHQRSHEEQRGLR

Vero [7] = experiment: Vero cell viability after compound exposure – synthesized analogs, set II, cytotoxicity control for West Nile virus antiviral project, SAR follow-up (AID 2402); format: functional, Chlorocebus sabaeus; settings: Chlorocebus sabaeus, Vero
[8] = target: T2, Ubiquitin-conjugating enzyme E2 N (Homo sapiens, UniProt P61088); format: functional;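 also: Dose-response confirmation in a TR-FRET assay detecting UBC13-driven polyubiquitin chain formation, inhibition measured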
T2 sequence (P61088 whole entry): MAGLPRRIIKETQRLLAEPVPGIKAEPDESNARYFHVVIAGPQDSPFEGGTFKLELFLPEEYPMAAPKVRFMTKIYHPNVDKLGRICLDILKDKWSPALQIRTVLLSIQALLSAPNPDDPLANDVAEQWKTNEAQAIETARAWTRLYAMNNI

[9] = A Cell Based Assay for the Identification of Probe candidate Compounds with Anti- Venezuelan Equine Encephalitis virus. [Related pubchem assays: 2409, 2419, 1621, 2238, 2405, 2024, 2065, 2402, 2414, 1635, 1650, 2244 ]; format: functional
Vero [10] = experiment: host cell viability loss, Vero E6 – synthesized analogs, cytotoxicity control for West Nile virus antiviral project, SAR follow-up (AID 2244); format: functional; settings: Chlorocebus sabaeus
Vero [11] = experiment: Vero 76 cell viability after compound exposure – Vero 76 cells, synthesized analogs, cytotoxicity control for West Nile virus antiviral project, SAR follow-up (AID 2414); format: functional, Chlorocebus sabaeus; settings: Chlorocebus sabaeus, Vero

Sequence of Mucolipin-3 (Q8TDD5 whole entry): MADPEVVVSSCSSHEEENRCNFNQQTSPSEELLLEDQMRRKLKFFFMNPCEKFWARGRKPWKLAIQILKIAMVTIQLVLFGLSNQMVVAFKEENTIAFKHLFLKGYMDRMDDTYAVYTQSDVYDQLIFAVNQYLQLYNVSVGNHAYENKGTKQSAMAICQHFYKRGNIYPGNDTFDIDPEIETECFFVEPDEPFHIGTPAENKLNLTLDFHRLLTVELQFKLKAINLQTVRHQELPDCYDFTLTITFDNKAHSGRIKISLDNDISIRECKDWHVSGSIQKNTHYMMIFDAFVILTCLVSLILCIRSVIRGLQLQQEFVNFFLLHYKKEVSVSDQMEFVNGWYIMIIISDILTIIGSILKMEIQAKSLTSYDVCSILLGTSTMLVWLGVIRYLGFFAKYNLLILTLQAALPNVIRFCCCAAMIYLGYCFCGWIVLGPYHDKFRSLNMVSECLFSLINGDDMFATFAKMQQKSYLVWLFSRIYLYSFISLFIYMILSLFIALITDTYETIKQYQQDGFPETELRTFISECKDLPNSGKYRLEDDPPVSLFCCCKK

With `CCN(CC)C(=O)CC1(c2ccccc2OC)CCOC(C(C)C)C1` (stereo not drawn) the EC50 (Mucolipin-3) was 6.96 µM (active) and the EC50 (Ion channel NompC) was > 29.9 µM (not active).

In the case of `O=C(N/N=C/c1c(Cl)nc2ccccn2c1=O)c1cccnc1`, the EC50 [1] is reported as > 50 µM (active).

For `COc1ccc(-c2cnc(NCc3cc4c(cc3[N+](=O)[O-])OCO4)n2C)cc1`, the EC50 [1] was > 50 µM (active).

For `O=C(Nc1ccccc1C(=O)O)c1ccccc1`, the IC50 (Bcl-2-like protein 10) was > 100 µM (inactive) and the IC50 (Estrogen receptor beta) was > 50 µM (not active).

With `CSc1nsc(N/N=C/c2ccc3c(c2)OCO3)c1C#N` the EC50 [2] was 0.314 µM (active), the EC50 [3] was 0.303 µM (active) and the EC50 [4] was 0.415 µM (active). For the same compound, the EC50 [5] was < 0.1 µM (inconclusive).

For `O=C1CC(c2ccco2)CC(O)=C1/C=N/c1cc(Cl)ccc1O` (stereo not drawn), the IC50 (Estrogen receptor) was 43.8 µM (not active) and the IC50 (Aminopeptidase N) was 5.58 µM (active).

With `Cc1cccc2c1-c1sc(C(=O)NCCCN3CCCC(C)C3)cc1CO2` (stereo not drawn) the AC50 [6] was 90.1 µM (active), the CC50 (Vero [7]) was 6.26 µM (active) and the IC50 [8] was > 20 µM (inactive). The IC50 [9] was 6 µM (active), the CC50 (Vero [10]) was 4.45 µM (active) and the CC50 (Vero [11]) was 19.4 µM (active).
